Results from paper PMC12207360, “Hyperpolarization Modulation of the T‐Type hCav3.2 Channel by Human Synenkephalin [1–53], a Shrew Neurotoxin Analogue without Paralytic Effects” (Angewandte Chemie (International Ed. in English), 2025).
Where no end group is shown, it is not given here.

How the values were obtained:
[1] = test system: human T-type voltage-gated calcium channel (hCav3.2); assay: Whole-cell patch-clamp of voltage-gated Ca2+ currents in HEK293T cells expressing hCav3.2; format: cell-based; conditions: 0.74 µM, n = 5
Procedure: Normalized conductance (G/G max) was generated for both data sets, fit to a Boltzmann equation, and is shown as data ± S.E.M. (n = 5). Statistical analyses were performed using Dunnett's multiple comparison tests. ^* p < 0.05 versus control. […]
Electrophysiological assays were done on human Cav3.2 channel, which was expressed on human embryonic kidney 293T (HEK293T) cells using Lipophectamine® 3000 transfection reagent. A pcDNA3 plasmid construct containing the complete sequence coding the human α1H-subunit of the Cav3.2 channel flanked by a green fluorescent protein was kindly provided by Prof. Edward Perez–Reyes (University of Virginia, Charlottesville, Virginia, USA).S1 Vo l t a g e-gated Ca2+ currents were recorded by the whole-cell patch-clamp technique, as previously described.28,S2 This recording was performed in the whole-cell conﬁguration using an Axopatch 200B Ampliﬁer (Axon CNS, Molecular Devices) at a holding potential of –90 mV. Cells were depolarized from the –90 mV holding potential to +80 mV with +10 mV voltage steps of 200 ms. The current amplitude was measured at the peak. The current density was determined with the cell capacitance to establish the density-voltage curves.
The currents were ﬁltered at 2 kHz and sampled at 5 kHz using an A/D converter, the Digidata 1440A (Axon CNS, Molecular Devices). The leak was subtracted automatically by a P/4 protocol (pclamp10, Axon CNS, Molecular Devices). For the recording Ca2+ currents, the bath solution contained 125 mM N-methyl-D-glucamine, 5 mM 4-aminopyridine, 20 mM tetraethylammonium chloride, 2 mM CaCl2, 2 mM MgCl2, and 10 mM D-glucose and was buffered to pH 7.4 with 10 mM HEPES. The patch pipettes were ﬁlled with solution containing 130 mM CsCl, 10 mM EGTA, 3 mM Mg–AT P, a n d 0 . 4 m M Li–GTP with the pH adjusted to 7.2 by 25 mM HEPES. Statistical analyses were performed using Dunnett’s multiple comparison tests. *, p < 0.05 versus control.
(§1) Circular dichroism spectrometry and stereostructure prediction of hSYN. […]
(§2) In brief, synthetic hSYN [1–53] (2) was dissolved in 50 mM KHPO4, pH 7.0 (ﬁnal concentration: 20 μM) in a 1 mm pathlength cell. The spectrum consisted of ﬁve scans acquired with a scan rate of 20 nm/min and a digital integration time of 2 sec. […]
(§3) Schrödinger, LLC) was used for calculation of surface charge and final image processing which suitable for scientific

[2] = test system: mealworms (larva of Zophobas atratus); assay: Mealworm paralysis bioassay, i.p. injection; format: in vivo; conditions: for Paralyzed/total numbers: 100 µL per 1 g bodyweight, immediate lower-body paralysis
Procedure: Paralytic activity against mealworms was examined by using synthetic 2 dissolved in saline with mealworms (larva of Zophobas atratus, body weight: 0.7–1.0 g), as described previously.28 Synthetic hSYN was injected into the abdomen of mealworms and observed immediate lower-body paralysis (injection volume: 100 μL per 1.0 g mealworm bodyweight).
Phosphate buffered saline (PBS) was used as a control. […]
HEPES. The patch pipettes were ﬁlled with solution containing 130 mM CsCl, 10 mM EGTA, 3 mM Mg–AT P, a n d 0 . 4 m M […]
as §1, §2, §3

trypsin = assay: Trypsin digestion; conditions: intact peptide, without disulfide reduction
Procedure: (§4) To determine the connectivity of disulfide bonds in synthetic 2, enzymatic digestion and subsequent fragment peptide analysis were performed. […] However, due to high proteolytic stability, analysis of these degraded products provided little information on the disulfide bond connectivity in 2. To perform stepwise S‐alkylation with limiting reduction of disulfide bonds,^[ [52], [53] ^] 2 was denatured with 6 M aq. guanidine hydrochloride (GdmCl)/0.1 M aq. citrate, followed by tris(2‐carboxyethyl)phosphine (TCEP) reduction and Michael addition to N‐ethylmaleimide (NEM). As a result, we obtained six kinds of S‐alkylated products (2SS‐a/b/c and 1SS‐a/b/c) with one or two disulfide bonds cleaved, respectively, along with unreacted 2 (3SS) and a fully S‐alkylated product (0SS) (Scheme 1a and Figure S4a). HPLC‐purified 1SS‐a (3) and 1SS‐b (4), which have different patterns of four Cys(S‐Nem) residues, were then reduced with DTT and alkylated with iodoacetamide.

[3] = test system: glutamyl endopeptidase (Glu-C); assay: Glutamyl endopeptidase (Glu-C) digestion; conditions: intact peptide, without disulfide reduction
Procedure: as §4

several enzymes = assay: Susceptibility to several enzymes / degradation; conditions: intact hSYN; compared with paralytic effect of BPP2 on mealworms
Procedure: as §4

Substance: human synenkephalin [1–53] (ECSQDCATCSYRLVRPADINFLACVMECEGKLPSLKIWETCKELLQLSKPELP; disulfide (positions not given here); also: Type II disulfides, places not given here; UniProt P01210 25-77, looked up, fragment) [compound 2, human synenkephalin N-terminal part [1–53], three disulfide bonds Cys(I)–Cys(V), Cys(II)–Cys(IV), Cys(III)–Cys(VI)]
- lowest current density peak ([1]; at −30 mV (control ca. −59 pA/pF at −10 mV)): ca. −42 pA/pF
- voltage of lowest current density peak ([1]; control peak at −10 mV): −30 mV
- current density at 0 to +20 mV ([1]; suggesting a block at higher membrane depolarization): significantly reduced
- hyperpolarization shift of hCav3.2 activation ([1]; whole-cell patch clamp, HEK293T cells, holding potential –90 mV, pH 7.4, Boltzmann fit, ± S.E.M., p < 0.05 versus control): −15 mV
- Paralyzed/total numbers ([2]; 5.0 µg/g bodyweight): 0/4
- Paralyzed/total numbers ([2]; 15 µg/g bodyweight): 0/3
- Paralyzed/total numbers ([2]; 50 µg/g bodyweight): 0/4
- paralytic effect on mealworms ([2]; even at 50 µg g−1 body weight): no paralytic effects on mealworms
- proteolytic stability toward trypsin (trypsin): partially digested
- proteolytic stability toward Glu-C [3]: partially digested
- enzymatic degradation (several enzymes): susceptible to several enzymes, its degradation was much slower than the paralytic effect of BPP2 on mealworms
